Counter-ions that a name gives are not always drawn. Marks after values point to notes of the source that are not given here.
system: mitochondrial electron transport chain (mETC); test: FACTORIAL assay: similarity of TFAP to the consensus (invariant) mETC TFAP; type: cell-based, human; settings: 24 h

In order of falling “Pearson correlation with the mETC TFAP, r” value:
1. Cc1ccc(-c2cc(C(F)(F)F)nn2-c2ccc(S(N)(=O)=O)cc2)cc1 [Celecoxib, reference compound]  0.883
2. CC/C(=C(/CC)c1ccc(O)cc1)c1ccc(O)cc1 [Diethylstilbestrol, reference compound]  0.812
3. CN(C)CCCN1c2ccccc2CCc2ccc(Cl)cc21 [Clomipramine hydrochloride, reference compound]  0.806

same assay, conditions: HepG2, 24 h incubation; each value at the concentration [uM]

In order of rising “Pearson correlation with the mETC TFAP, r” value:
1. O=S(=O)(c1ccc(Cl)cc1)c1ccc(Cl)cc1 [4,4′-Dichlorodiphenyl sulfone]  0.810
2. COP(=S)(OC)SCn1nnc2ccccc2c1=O [Azinphos-methyl]  0.823
3. CCc1cc(Cc2cc(CC)cc(C(C)(C)C)c2O)c(O)c(C(C)(C)C)c1  0.827
4. CCOC(=O)[C@@H](C)Oc1ccc(Oc2nc3ccc(Cl)cc3o2)cc1 [Fenoxaprop-P-ethyl]  0.827
5. Oc1ccc(Cc2ccc(O)cc2)cc1 [Bisphenol F]  0.835
6. CCCCC(CC)COP(=O)(O)OCC(CC)CCCC (stereo not shown) [Bis(2-ethylhexyl) phosphate]  0.838
7. CCC(C)(c1ccc(O)cc1)c1ccc(O)cc1 [Bisphenol B]  0.861
8. COC(=O)N(C(=O)N1CO[C@@]2(C(=O)OC)Cc3cc(Cl)ccc3C2=N1)c1ccc(OC(F)(F)F)cc1 [Indoxacarb]  0.887
9. CO/C=C(/C(=O)OC)c1ccccc1Oc1cc(Oc2ccccc2C#N)ncn1 [Azoxystrobin]  0.894

system: mitochondria membrane potential; test: not given; settings: HepG2, 1-hour incubation at concentrations below 60 μM; cited from earlier work

In order of rising “MMP assay hitCall” value:
1. CCOC(=O)[C@@H](C)Oc1ccc(Oc2nc3ccc(Cl)cc3o2)cc1 [Fenoxaprop-P-ethyl]  0
2. CNC(=O)Oc1cccc(N=CN(C)C)c1 [Formetanate hydrochloride]  0
3. C1N2CN3CN1CN(C2)C3 [Methenamine, reference compound]  0
4. CCCCCC#CC(=O)OC [Methyl 2-octynoate]  0
5. COC(=O)/C=C(\C)CCC=C(C)C [Methyl geranate]  0
6. CN=C=S [Methyl isothiocyanate]  0
7. CN(C)c1ccc(/N=N/c2ccccc2C(=O)O)cc1 [Methyl red]  0
8. CC(=O)/C=C/c1ccccc1 [Methyl trans-styryl ketone]  0
9. CCc1cccc(C)c1N(C(=O)CCl)C(C)COC (stereo not shown) [Metolachlor]  0
10. COC(=O)c1ccccc1S(=O)(=O)NC(=O)Nc1nc(C)nc(OC)n1 [Metsulfuron-methyl]  0
11. COc1ccc(S(=O)(=O)N2C(=O)[C@@](c3ccccc3OC)(N3C[C@H](O)C[C@H]3C(=O)N(C)C)c3cc(Cl)ccc32)c(OC)c1 [Nelivaptan]  0
12. CNc1cnn(-c2cccc(C(F)(F)F)c2)c(=O)c1Cl [Norflurazon]  0
13. O=C(NC(=O)c1c(F)cccc1F)Nc1ccc(OC(F)(F)C(F)OC(F)(F)F)c(Cl)c1 (stereo not shown) [Novaluron]  0
14. CC1=C(C(=O)Nc2ccccc2)S(=O)(=O)CCO1 [Oxycarboxin]  0
15. C#CC(C)(C)NC(=O)c1cc(Cl)cc(Cl)c1 [Propyzamide]  0
16. Cc1cc(C)nc(Nc2ccccc2)n1 [Pyrimethanil]  0
17. CC(COc1ccc(Oc2ccccc2)cc1)Oc1ccccn1 (stereo not shown) [Pyriproxyfen]  0
18. CCCN(CC)CC1COC2(CCC(C(C)(C)C)CC2)O1 (stereo not shown) [Spiroxamine]  0
19. CO[C@@H]1[C@H](OC(=O)NC(=O)CCl)CC[C@]2(CO2)[C@H]1[C@@]1(C)O[C@@H]1CC=C(C)C [TNP-470]  0
20. CCCCCCCCCCCCCC[N+](C)(C)C [Tetradonium bromide]  0
21. COC(=O)c1c(C(F)F)nc(C(F)(F)F)c(C2=NCCS2)c1CC(C)C [Thiazopyr]  0
22. O=C(O)Cc1cc(I)c(Oc2ccc(O)c(I)c2)c(I)c1 [Tiratricol, reference compound]  0
23. Cc1ccc(S(=O)(=O)NC(=O)NN2CCCCCC2)cc1 [Tolazamide, reference compound]  0
24. CC(C)(C)C(=O)C(Oc1ccc(Cl)cc1)n1cncn1 (stereo not shown) [Triadimefon]  0
25. CC(C)(C)C(O)C(Oc1ccc(Cl)cc1)n1cncn1 (stereo not shown) [Triadimenol]  0
26. COP(=O)(OC)C(O)C(Cl)(Cl)Cl (stereo not shown) [Trichlorfon]  0
27. CCc1cc(Cc2cc(CC)cc(C(C)(C)C)c2O)c(O)c(C(C)(C)C)c1  1
28. O=S(=O)(c1ccc(Cl)cc1)c1ccc(Cl)cc1 [4,4′-Dichlorodiphenyl sulfone]  1
29. CCCCC(CC)COP(=O)(O)OCC(CC)CCCC (stereo not shown) [Bis(2-ethylhexyl) phosphate]  1
30. CCC(C)(c1ccc(O)cc1)c1ccc(O)cc1 [Bisphenol B]  1
31. Oc1ccc(Cc2ccc(O)cc2)cc1 [Bisphenol F]  1
32. CC/C(=C(/CC)c1ccc(O)cc1)c1ccc(O)cc1 [Diethylstilbestrol, reference compound]  1
33. C[C@@H]1[C@@H](c2ccc(Cl)cc2)SC(=O)N1C(=O)NC1CCCCC1 [Hexythiazox]  1
34. CC(C)(O)C(=O)Nc1ccc([N+](=O)[O-])c(C(F)(F)F)c1 [Hydroxyflutamide]  1
35. COC(=O)N(C(=O)N1CO[C@@]2(C(=O)OC)Cc3cc(Cl)ccc3C2=N1)c1ccc(OC(F)(F)F)cc1 [Indoxacarb]  1
36. N#Cc1cc(I)c(O)c(I)c1 [Ioxynil]  1
37. CC(C)C1CCC(Cc2ccc(Cl)cc2)C1(O)Cn1cncn1 (stereo not shown) [Ipconazole]  1
38. O=c1c(O)c(-c2ccc(O)cc2)oc2cc(O)cc(O)c12 [Kaempferol]  1
39. CC(=O)N1CCN(c2ccc(OCC3COC(Cn4ccnc4)(c4ccc(Cl)cc4Cl)O3)cc2)CC1 (stereo not shown) [Ketoconazole, reference compound]  1
40. CON(C)C(=O)Nc1ccc(Cl)c(Cl)c1 [Linuron]  1
41. CCOC(=O)N1CCC(=C2c3ccc(Cl)cc3CCc3cccnc32)CC1 [Loratadine, reference compound]  1
42. CC[C@H](C)C(=O)O[C@H]1C[C@@H](C)C=C2C=C[C@H](C)[C@H](CC[C@@H]3C[C@@H](O)CC(=O)O3)[C@H]21 [Lovastatin, reference compound]  1
43. Cc1ccccc1C(=O)Nc1cccc(OC(C)C)c1 [Mepronil]  1
44. CC1(C)CCC(Cc2ccc(Cl)cc2)C1(O)Cn1cncn1 (stereo not shown) [Metconazole]  1
45. CC#C[C@]1(O)CC[C@H]2[C@@H]3CCC4=CC(=O)CCC4=C3[C@@H](c3ccc(N(C)C)cc3)C[C@@]21C [Mifepristone, reference compound]  1
46. CC(C)(C)CC(C)(C)c1ccc(O)c(-n2nc3ccccc3n2)c1 [Octrizole]  1
47. CC(C)Oc1cc(-n2nc(C(C)(C)C)oc2=O)c(Cl)cc1Cl [Oxadiazon]  1
48. CCOc1cc(Oc2ccc(C(F)(F)F)cc2Cl)ccc1[N+](=O)[O-] [Oxyfluorfen]  1
49. CCOP(=S)(OCC)Oc1ccc([N+](=O)[O-])cc1 [Parathion]  1
50. Oc1c(Cl)c(Cl)c(Cl)c(Cl)c1Cl [Pentachlorophenol]  1
51. Nc1ccc(/N=N/c2ccccc2)c(N)n1 [Phenazopyridine hydrochloride, reference compound]  1
52. CCOP(=S)(OCC)SCn1c(=O)oc2cc(Cl)ccc21 [Phosalone]  1
53. C#CCC1=C(C)C(OC(=O)C2C(C=C(C)C)C2(C)C)CC1=O (stereo not shown) [Prallethrin]  1
54. CCCSP(=O)(OCC)Oc1ccc(Br)cc1Cl (stereo not shown) [Profenofos]  1
55. CCC(=O)Nc1ccc(Cl)c(Cl)c1 [Propanil]  1
56. C#CCOS(=O)OC1CCCCC1Oc1ccc(C(C)(C)C)cc1 (stereo not shown) [Propargite]  1
57. COC(=O)N(OC)c1ccccc1COc1ccn(-c2ccc(Cl)cc2)n1 [Pyraclostrobin]  1
58. CC(C)(C)c1ccc(CSc2cnn(C(C)(C)C)c(=O)c2Cl)cc1 [Pyridaben, reference compound]  1
59. CC(C)=CC1C(C(=O)OCc2coc(Cc3ccccc3)c2)C1(C)C (stereo not shown) [Resmethrin]  1
60. C=C(C)[C@H]1Cc2c(ccc3c2O[C@@H]2COc4cc(OC)c(OC)cc4[C@@H]2C3=O)O1 [Rotenone, reference compound]  1
61. CC(C)=CC1C(C(=O)OCN2C(=O)C3=C(CCCC3)C2=O)C1(C)C (stereo not shown) [Tetramethrin]  1
62. O=C(Nc1ccc(Cl)cc1)Nc1ccc(Cl)c(Cl)c1 [Triclocarban]  1
63. Oc1cc(Cl)ccc1Oc1ccc(Cl)cc1Cl [Triclosan]  1
64. CON=C(C(=O)OC)c1ccccc1CON=C(C)c1cccc(C(F)(F)F)c1 [Trifloxystrobin]  1
65. O=P(Oc1ccccc1)(Oc1ccccc1)Oc1ccccc1 [Triphenyl phosphate]  1

In the case of `COP(=S)(OC)SCn1nnc2ccccc2c1=O` [Azinphos-methyl], the “MMP assay hitCall” value is given as 0*.
In the case of `CO/C=C(/C(=O)OC)c1ccccc1Oc1cc(Oc2ccccc2C#N)ncn1` [Azoxystrobin], the “MMP assay hitCall” value is given as 0*.
For `CN(C)CCCN1c2ccccc2CCc2ccc(Cl)cc21` [Clomipramine hydrochloride, reference compound], the “MMP assay hitCall” value is listed as 0*.
For `CO/N=C(/C(=O)OC)c1ccccc1COc1ccccc1C` [Kresoxim-methyl], the “MMP assay hitCall” value is listed as 0*.
For `CCOC(=O)CC(SP(=S)(OC)OC)C(=O)OCC` (stereo not shown) [Malathion], the “MMP assay hitCall” value is listed as 0*.
For `CC1(C)NC(=O)N(c2ccc([N+](=O)[O-])c(C(F)(F)F)c2)C1=O` [Nilutamide, reference compound], the “MMP assay hitCall” value is listed as 0*.
For `CCOP(=S)(OCC)SCSCC` [Phorate], the “MMP assay hitCall” value is listed as 0*.
In the case of `CCCN(CCOc1c(Cl)cc(Cl)cc1Cl)C(=O)n1ccnc1` [Prochloraz], the “MMP assay hitCall” value is listed as 0*.
For `COC(=O)NC(=S)Nc1ccccc1NC(=S)NC(=O)OC` [Thiophanate-methyl], the “MMP assay hitCall” value is listed as 0*.

same assay, conditions: cited from earlier work

In order of rising “MMP assay hitCall” value:
1. CN(C)c1ccc(N=O)cc1 [N,N-Dimethyl-4-nitrosoaniline]  0
2. CC(C)Nc1ccc(Nc2ccccc2)cc1 [N-Isopropyl-N′-phenyl-p-phenylenediamine]  0
3. Oc1c(Cl)cc(Cl)c(Cl)c1Cc1c(O)c(Cl)cc(Cl)c1Cl [Hexachlorophene]  1
4. CCC[CH2][Sn]([Cl])([CH2]CCC)[CH2]CCC [Tributyltin chloride]  1
5. O=P(OCC(Br)CBr)(OCC(Br)CBr)OCC(Br)CBr (stereo not shown) [Tris(2,3-dibromopropyl) phosphate]  1

Reference: patent US20210181182A1, “METHOD FOR IDENTIFICATION OF PERTURBAGENS OF PARTICULAR BIOLOGICAL PROCESSES AND CELL SYSTEMS WITHIN LIVING CELLS” (priority 2018, published 2021)
